The first assay addresses Full-length inactive AKT1 (Homo sapiens, UniProt P31749). Kind of assay: Inactive Akt Alpha Screen Assay. Format: biochemical. As to conditions: values not marked with "*": AlphaScreen assay; read-out: Akt1 IC50, (AlphaScreen). In a few lines:
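AlphaScreen read-out (excitation 640 nm, emission 570 nm) after 90 min incubation at room temperature in the dark. Signal comes from crosstide phosphorylation by AKT1, which was activated by added PDK1, MAPKAPK2, ATP and lipid vesicles, captured via phospho-AKT substrate antibody and streptavidin beads.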
Full-length inactive AKT1, sequence (P31749 whole entry): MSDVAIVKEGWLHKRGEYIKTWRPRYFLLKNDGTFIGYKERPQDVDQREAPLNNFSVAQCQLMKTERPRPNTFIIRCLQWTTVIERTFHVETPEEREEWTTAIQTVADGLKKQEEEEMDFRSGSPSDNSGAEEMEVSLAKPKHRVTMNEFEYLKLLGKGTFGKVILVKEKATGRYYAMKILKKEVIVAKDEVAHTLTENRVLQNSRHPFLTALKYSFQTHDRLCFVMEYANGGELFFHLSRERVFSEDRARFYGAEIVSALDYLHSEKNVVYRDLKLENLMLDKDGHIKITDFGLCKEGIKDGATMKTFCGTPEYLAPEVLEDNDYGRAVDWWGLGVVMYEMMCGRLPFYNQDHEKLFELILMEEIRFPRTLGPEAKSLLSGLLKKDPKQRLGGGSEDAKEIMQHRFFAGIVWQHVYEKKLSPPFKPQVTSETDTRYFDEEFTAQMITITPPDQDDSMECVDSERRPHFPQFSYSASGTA
One may read the IC50 as the midpoint of a concentration-inhibition curve. As for `Nc1ncccc1-c1nc2cccnc2n1-c1ccc(C2CCCCC2)cc1` [Example 17], the 50% inhibitory concentration (IC50) was 3900 nM.

For the compound `Nc1ccccc1-c1cnc2c(c1)nc(-c1cccnc1N)n2-c1ccc(CNC(=O)c2ccccc2)cc1` [Example 134, N-{4-[6-(2-aminophenyl)-2-(2-aminopyridin-3-yl)-3H-imidazo[4,5-b]pyridin-3-yl]benzyl}benzamide], the IC50 came out at 1600 nM.

Regarding `Nc1ncccc1-c1nc2cc(Br)cnc2n1-c1ccc(CNS(=O)(=O)C2CCCCC2)cc1` [Example 151, N-{4-[2-(2-aminopyridin-3-yl)-6-bromo-3H-imidazo[4,5-b]pyridin-3-yl]benzyl}cyclohexanesulfonamide], the IC50 was 340 nM.

The same assay, now with this note: values not marked with "*"; read-out: Akt1 IC50, (AlphaScreen).
On to `Cc1cnc2c(c1)nc(-c1cccnc1N)n2-c1ccc(CNC(=O)c2cn(C)c3ccccc23)cc1` [Example 212, N-(4-(2-(2-aminopyridin-3-yl)-6-methyl-3H-imidazo[4,5-b]pyridin-3-yl)benzyl)-1-methyl-1H-indole-3-carboxamide], for which the IC50 came to 200 nM.

With `CC(=O)Nc1ccc(NC(=O)c2ccc(-n3c(-c4cccnc4N)nc4cccnc43)cc2)cc1` [Example 181, N-[4-(acetylamino)phenyl]-4-[2-(2-aminopyridin-3-yl)-3H-imidazo[4,5-b]pyridin-3-yl]benzamide], the IC50 was 840 nM.

For `CN(C)c1cccc(-c2ccc3nc(-c4cccnc4N)n(-c4ccc(C5(N)CCC5)cc4)c3n2)c1` [Example 409, 3-{3-[4-(1-aminocyclobutyl)phenyl]-5-[3-(dimethylamino)phenyl]-3H-imidazo[4,5-b]pyridin-2-yl}pyridin-2-amine], the IC50 was 5.3 nM.

Take `Cc1ccc2cc(NC(=O)Cc3ccc(-n4c(-c5cccnc5N)nc5ccc(-c6cccnc6)nc54)cc3)ccc2n1` [Example 260, 2-(4-(2-(2-aminopyridin-3-yl)-5-(pyridin-3-yl)-3H-imidazo[4,5-b]pyridin-3-yl)phenyl)-N-(2-methylquinolin-6-yl)acetamide]: the IC50 was 14 nM.

For `Nc1ncccc1-c1nc2ccc(-c3ccccc3O)nc2n1-c1ccc(CNC(=O)c2cccc(F)c2)cc1` [Example 328, N-(4-(2-(2-aminopyridin-3-yl)-5-(2-hydroxyphenyl)-3H-imidazo[4,5-b]pyridin-3-yl)benzyl)-3-fluorobenzamide], the 50% inhibitory concentration (IC50) was found to be 47 nM.

Consider `Nc1ncccc1-c1nc2ccc(-c3ccccc3)nc2n1-c1ccc(C2(C(=O)NCCO)CCC2)cc1` [Example 379, 1-(4-(2-(2-aminopyridin-3-yl)-5-phenyl-3H-imidazo[4,5-b]pyridin-3-yl)phenyl)-N-(2-hydroxyethyl)cyclobutanecarboxamide], for which the IC50 amounted to 290 nM.

Consider `Nc1ncccc1-c1nc2ccc(-c3ccc4scnc4c3)nc2n1-c1ccc(C2(N)CCC2)cc1` [Example 416, 3-{3-[4-(1-aminocyclobutyl)phenyl]-5-(1,3-benzothiazol-5-yl)-3H-imidazo[4,5-b]pyridin-2-yl}pyridin-2-amine], for which the IC50 is 4.2 nM.

With `Cc1cnc2c(c1)nc(-c1cccnc1N)n2-c1ccc(CNC(=O)c2cccc3ccccc23)cc1` [Example 224, N-(4-(2-(2-aminopyridin-3-yl)-6-methyl-3H-imidazo[4,5-b]pyridin-3-yl)benzyl)-1-naphthamide], the concentration for half-maximal inhibition (IC50) is 50 nM.

As for `Cc1cnc2c(c1)nc(-c1cccnc1N)n2-c1ccc(CNC(=O)c2ccc3ncccc3c2)cc1` [Example 279, N-(4-(2-(2-aminopyridin-3-yl)-6-methyl-3H-imidazo[4,5-b]pyridin-3-yl)benzyl)quinoline-6-carboxamide], the IC50 amounted to 110 nM.

Regarding `CC(=O)Nc1cccc(C(=O)NCc2ccc(-n3c(-c4cccnc4N)nc4ccc(C)nc43)cc2)c1` [Example 248, 3-acetamido-N-(4-(2-(2-aminopyridin-3-yl)-5-methyl-3H-imidazo[4,5-b]pyridin-3-yl)benzyl)benzamide], the 50% inhibitory concentration (IC50) came to 28 nM.

As to `Nc1ncccc1-c1nc2ccc(-c3cccc(C(=O)NCCO)c3)nc2n1-c1ccc(C2(N)CCC2)cc1` [Example 385, 3-(3-(4-(1-aminocyclobutyl)phenyl)-2-(2-aminopyridin-3-yl)-3H-imidazo[4,5-b]pyridin-5-yl)-N-(2-hydroxyethyl)benzamide], the IC50 worked out at 2.8 nM.

For the compound `CS(=O)(=O)Nc1ccccc1-c1ccc2nc(-c3cccnc3N)n(-c3ccc(CNC(=O)c4cccc(F)c4)cc3)c2n1` [Example 313, N-(4-(2-(2-aminopyridin-3-yl)-5-(2-(methylsulfonamido)phenyl)-3H-imidazo[4,5-b]pyridin-3-yl)benzyl)-3-fluorobenzamide], the IC50 came to 120 nM.

On to `Cc1cnc2c(c1)nc(-c1cccnc1N)n2-c1ccc(CNC(=O)c2ccc(C)c(F)c2)cc1` [Example 278, N-(4-(2-(2-aminopyridin-3-yl)-6-methyl-3H-imidazo[4,5-b]pyridin-3-yl)benzyl)-3-fluoro-4-methylbenzamide], for which the IC50 stood at 120 nM.

`CC(=O)Nc1ccc(-c2ccc3nc(-c4cccnc4N)n(-c4ccc(CNC(=O)c5ccccc5)cc4)c3n2)cc1` [Example 236, N-(4-(5-(4-acetamidophenyl)-2-(2-aminopyridin-3-yl)-3H-imidazo[4,5-b]pyridin-3-yl)benzyl)benzamide]: the IC50 was determined as 33 nM.

As for `Cc1cnc2c(c1)nc(-c1cccnc1N)n2-c1ccc(CNC(=O)Cc2nnn[nH]2)cc1` [Example 286, N-(4-(2-(2-aminopyridin-3-yl)-6-methyl-3H-imidazo[4,5-b]pyridin-3-yl)benzyl)-2-(1H-tetrazol-5-yl)acetamide], the IC50 was found to be 740 nM.

Take `Nc1ncccc1-c1nc2cc(-c3ccc(C(=O)O)o3)cnc2n1-c1ccc(CNC(=O)c2ccccc2)cc1` [Example 240, 5-(2-(2-aminopyridin-3-yl)-3-(4-(benzamidomethyl)phenyl)-3H-imidazo[4,5-b]pyridin-6-yl)furan-2-carboxylic acid]: the IC50 came to 16 nM.

As for `Nc1ncccc1-c1nc2ccc(-c3ccc(N4CCOCC4)nc3)nc2n1-c1ccc(C2(N)CCC2)cc1` [Example 404, 3-{3-[4-(1-aminocyclobutyl)phenyl]-5-(6-morpholin-4-ylpyridin-3-yl)-3H-imidazo[4,5-b]pyridin-2-yl}pyridin-2-amine], the IC50 was determined as 7.8 nM.

Regarding `COc1cc(-c2ccc3nc(-c4cccnc4N)n(-c4ccc(C5(N)CCC5)cc4)c3n2)ccc1N` [Example 417, 3-{3-[4-(1-aminocyclobutyl)phenyl]-5-(4-amino-3-methoxyphenyl)-3H-imidazo[4,5-b]pyridin-2-yl}pyridin-2-amine], the IC50 worked out at 2 nM.

Consider `CC(C)(C)c1ccc(C(=O)NCc2ccc(-n3c(-c4cccnc4N)nc4cccnc43)cc2)cc1` [Example 172, N-{4-[2-(2-aminopyridin-3-yl)-3H-imidazo[4,5-b]pyridin-3-yl]benzyl}-4-tert-butylbenzamide], for which the IC50 was 99 nM.

Turning to `Nc1ccccc1-c1ccc2nc(-c3cccnc3N)n(-c3ccc(CNC(=O)c4cccc(F)c4)cc3)c2n1` [Example 327, N-(4-(5-(2-aminophenyl)-2-(2-aminopyridin-3-yl)-3H-imidazo[4,5-b]pyridin-3-yl)benzyl)-3-fluorobenzamide], the IC50 was found to be 91 nM.

Take `COCc1cccc(-c2ccc3nc(-c4cccnc4N)n(-c4ccc(C5(N)CCC5)cc4)c3n2)c1` [Example 412, 3-{3-[4-(1-aminocyclobutyl)phenyl]-5-[3-(methoxymethyl)phenyl]-3H-imidazo[4,5-b]pyridin-2-yl}pyridin-2-amine]: the half-maximal inhibitory concentration (IC50) stood at 4 nM.

Consider `Nc1ncccc1-c1nc2ccc(-c3ccc(O)cc3)nc2n1-c1ccc(CNC(=O)c2cccc(F)c2)cc1` [Example 330, N-(4-(2-(2-aminopyridin-3-yl)-5-(4-hydroxyphenyl)-3H-imidazo[4,5-b]pyridin-3-yl)benzyl)-3-fluorobenzamide], for which the IC50 is 120 nM.

With `Nc1ncccc1-c1nc2ccc(-c3ccccc3)nc2n1-c1ccc(CNC(=O)c2ccccc2)cc1` [Example 202, N-(4-(2-(2-aminopyridin-3-yl)-5-phenyl-3H-imidazo[4,5-b]pyridin-3-yl)benzyl)benzamide], the 50% inhibitory concentration (IC50) was 27 nM.

In the case of `Cc1cnc2c(c1)nc(-c1cccnc1N)n2-c1ccc(CNC(=O)c2ccc(Cl)c(Cl)c2)cc1` [Example 266, N-(4-(2-(2-aminopyridin-3-yl)-6-methyl-3H-imidazo[4,5-b]pyridin-3-yl)benzyl)-3,4-dichlorobenzamide], the IC50 was determined as 230 nM.

As for `Cc1cnc2c(c1)nc(-c1cccnc1N)n2-c1ccc(CC(=O)Nc2ccc3nc(C)ccc3c2)cc1` [Example 194, 2-(4-(2-(2-aminopyridin-3-yl)-6-methyl-3H-imidazo[4,5-b]pyridin-3-yl)phenyl)-N-(2-methylquinolin-6-yl)acetamide], the half-maximal inhibitory concentration (IC50) was found to be 47 nM.

For the compound `Nc1ncccc1-c1nc2cc(Br)cnc2n1-c1ccc(CC(=O)Nc2cccc(F)c2)cc1` [Example 299, 2-(4-(2-(2-aminopyridin-3-yl)-6-bromo-3H-imidazo[4,5-b]pyridin-3-yl)phenyl)-N-(3-fluorophenyl)acetamide], the IC50 stood at 130 nM.

`N#Cc1cccc(-c2ccc3nc(-c4cccnc4N)n(-c4ccc(C5(N)CCC5)cc4)c3n2)c1` [Example 392, 3-(3-(4-(1-aminocyclobutyl)phenyl)-2-(2-aminopyridin-3-yl)-3H-imidazo[4,5-b]pyridin-5-yl)benzonitrile]: the IC50 came to 7.1 nM.

Take `NCc1ccc(-c2ccc3nc(-c4cccnc4N)n(-c4ccc(CNC(=O)c5cccc(F)c5)cc4)c3n2)cc1` [Example 314, N-(4-(5-(4-(aminomethyl)phenyl)-2-(2-aminopyridin-3-yl)-3H-imidazo[4,5-b]pyridin-3-yl)benzyl)-3-fluorobenzamide]: the IC50 turned out to be 25 nM.

As for `CS(=O)(=O)Nc1ncccc1-c1nc2ccc(-c3ccccc3)nc2n1-c1ccc(C2(NS(C)(=O)=O)CCC2)cc1` [Example 366, N-(3-(3-(4-(1-(methylsulfonamido)cyclobutyl)phenyl)-5-phenyl-3H-imidazo[4,5-b]pyridin-2-yl)pyridin-2-yl)methanesulfonamide], the IC50 turned out to be 140 nM.

For the origin of these results see patent US8501770B2 (ArQule, Inc., priority 2009, dated 2013).
